{"source": "patent US7875586B2", "about": "(priority 2002, dated 2011)", "type_in_all_cases": "cell-based, human", "key": {"[1]": {"system": "T-84 cells"}, "[2]": {"system": "Caco-2 cells"}, "[3]": {"system": "living Caco-2 cells"}, "[4]": {"system": "Caco-2 cells", "remark": "listed apart in the source"}}, "note": "Entries after “also recorded” stand apart in the source; their conditions may differ. Peptide text beside a SMILES is read from it. * marks the point of attachment. Cbz = O=C(OCc1ccccc1)*; CH2F = FC*", "data": [{"smiles": "CCCCCCCCCCCCCCCC(=O)NC(CN1CCOCC1)C(O)c1ccccc1", "note": "(stereo not drawn) [PPMP, threo-1-phenyl-2-palmitoylamino-3-morpholino-1-propanol]", "values": [{"measurement": "Subpopulation of Gb3 enriched cells with filopodia on the leading edge", "setting": "[1]", "value": "completely eliminated"}, {"measurement": "Subpopulation of Gb3 enriched cells with filopodia on the leading edge", "setting": "[2]", "value": "completely eliminated"}]}, {"smiles": "C[C@@H](N)[C@H]1CC[C@H](C(=O)Nc2ccncc2)CC1", "note": "[Y-27632]", "values": [{"measurement": "Cell morphology", "setting": "[3]", "value": "pronounced effects"}, {"measurement": "Filopodia and filopodia-mediated cell-cell contacts", "setting": "[3]", "value": "did not change"}]}, {"smiles": "COC(=O)C[C@H](NC(=O)[C@H](C)NC(=O)[C@@H](NC(=O)OCc1ccccc1)C(C)C)C(=O)CF", "note": "[z-VAD-fink] (Cbz-Val-Ala-Asp(OMe)-CH2F)", "values": [{"measurement": "Effect of caspase inhibition on DNA fragmentation caused by Stx1B", "setting": "[4]", "value": "decreased DNA fragmentation; also recorded: Inhibition of apoptotic DNA fragmentation"}]}]}
